Data: paper PMC9254699 (Biomaterials science, 2021)
pIC50: −log10 of the molar value. No end group written: not given here.

What was measured:
TGF-β1 [1] = biological target: T1, TGF-β1 (Homo sapiens, UniProt P01137); experiment: surface plasmon resonance; type: binding; settings: for kon: read-out: association rate constant ka; for koff: read-out: dissociation rate constant kd
TGF-β1 [2] = biological target: T1, TGF-β1; settings: cited from earlier work
TGF-β1 [3] = biological target: T1, TGF-β1; settings: cited from earlier work; remark: listed apart in the source
ALK5 (TβRI) = settings: cited from earlier work
activin receptor ALK4 = settings: cited from earlier work
activin receptor ALK7 = settings: cited from earlier work
CK1δ = settings: cited from earlier work
RIPK2 = settings: cited from earlier work
p38MAPK = settings: cited from earlier work
[4] = deemed target-related; cited from earlier work
off-target kinases = settings: cited from earlier work
[5] = tested on: mouse T-lymphocyte HT-2 cells; experiment: HT-2 T-lymphocyte proliferation assay; type: cell-based
[6] = tested on: human umbilical vein endothelial cells (HUVECs); experiment: HUVEC proliferation assay; type: cell-based; settings: HUVEC (Fig. S5)
[7] = tested on: mouse T-lymphocyte HT-2 cells; settings: cited from earlier work

T1 sequence (P01137 279-390 limits assumed, species assumed): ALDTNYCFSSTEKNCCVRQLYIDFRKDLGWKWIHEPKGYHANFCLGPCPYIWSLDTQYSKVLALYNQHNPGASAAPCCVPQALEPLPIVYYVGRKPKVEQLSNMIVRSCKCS

Question: Which kon (TGF-β1 [1]) does the source give for CIAEIDLIPRDRPFV [RIP] here?
Answer: The kon was 140000 M⁻¹ s⁻¹.

Question: What about the koff (TGF-β1 [1]) of the same molecule?
Answer: The koff was 0.00836 s⁻¹.

Question: With `CCCCc1nc(Cl)c(CO)n1Cc1ccc(-c2ccccc2-c2nn[nH]n2)cc1` [losartan, reference compound] as the molecule, how does the “direct binding to TGF-β1 or its receptors” value (from here on “direct binding”) (TGF-β1 [2]) read?
Answer: Its value is “do not directly bind TGF-β1 or its receptors”.

Question: What about the “activity against TGF-β1, preclinical anti-fibrotic” value (TGF-β1 [3]) of the same molecule?
Answer: The value was “activity against TGF-β1”.

Question: Which results are given for `NC(=O)c1ccc(-c2nc(-c3ccc4c(c3)OCO4)c(-c3ccccn3)[nH]2)cc1` [SB-431542]?
Answer: inhibition of ALK5 (TβRI) (ALK5 (TβRI)): small molecule inhibitor of ALK5 (TβRI); activity against ALK4 (activin receptor ALK4): activity against activin receptors ALK4; activity against ALK7 (activin receptor ALK7): activity against activin receptors ALK4 and ALK7; activity against CK1δ (CK1δ): activity; activity against RIPK2 (RIPK2): activity; activity against p38MAPK (p38MAPK): activity

Question: With `Cc1ccc(C(=O)Nc2ccc(S(=O)(=O)O)c3cc(S(=O)(=O)O)cc(S(=O)(=O)O)c23)cc1NC(=O)c1cccc(NC(=O)Nc2cccc(C(=O)Nc3cc(C(=O)Nc4ccc(S(=O)(=O)O)c5cc(S(=O)(=O)O)cc(S(=O)(=O)O)c45)ccc3C)c2)c1` [suramin, reference compound] as the molecule, how does the “direct binding” value (TGF-β1 [2]) read?
Answer: The value was “do not directly bind TGF-β1 or its receptors”.

Question: And the “activity against TGF-β1, preclinical anti-fibrotic” value (TGF-β1 [3])?
Answer: Its value is “activity against TGF-β1”.

Question: Which kon (TGF-β1 [1]) does the source give for CLIDFRIPADREVPI [Scrambled RIP] here?
Answer: The kon was 68500 M⁻¹ s⁻¹.

Question: And the koff (TGF-β1 [1])?
Answer: The koff was 0.0352 s⁻¹.

Question: With `Cc1cccc(-c2nn3c(c2-c2ccnc4ccc(C(N)=O)cc24)CCC3)n1` [Galunisertib] as the molecule, how does the “inhibition of TβRI by galunisertib” value (ALK5 (TβRI)) read?
Answer: Its value is “small molecule inhibitor of TβRI”.

Question: What about the “cardiac toxicity in preclinical development” value [4] of the same molecule?
Answer: Its value is “cardiac toxicities identified during preclinical development”.

Question: And the “activity against off-target kinases” value (off-target kinases)?
Answer: Its value is “strong activity against off-target kinases”.

Question: For CIAEIDLIPRDRPF [RIPΔ], which kon (TGF-β1 [1]) is on record?
Answer: The kon was 192000 M⁻¹ s⁻¹.

Question: What about the koff (TGF-β1 [1]) of the same molecule?
Answer: The koff was 0.0199 s⁻¹.

Question: For “TGF-β1: most abundant TGF-β isoform in adult tissues and platelets”, which “IC50 of TGF-β1 in the HT-2 proliferation assay” value ([5]; IL-4 dependent proliferation, fluorescence-based cell viability assay) is on record?
Answer: Its value is 0.05 ng/mL.

Question: And the pIC50 ([5]; read-out: IC50 of TGF-β1 in the HT-2 proliferation assay (molar), IL-4 dependent proliferation, fluorescence-based cell viability assay)?
Answer: Its pIC50 is 11.41.

Question: What about the “inhibition of IL-4 dependent HT-2 proliferation by TGF-β1” value ([5]; soluble TGF-β1, fluorescence-based cell viability assay (Fig. 2a)) of the same molecule?
Answer: The value was “inhibited IL-4 dependent proliferation in a dose dependent manner”.

Question: And the “TGF-β1 concentration of highest inhibition of HUVEC proliferation” value [6]?
Answer: Its value is 41 pg/mL.

Question: What about the “TGF-β1 concentration of highest inhibition of HUVEC proliferation (molar)” value [6] of the same molecule?
Answer: The value was 3.2 pM.

Question: And the “TGF-β1 concentration range suppressing HUVEC proliferation” value [6]?
Answer: Its value is 10 to 1000 ng/mL.

Question: What about the “published IC50 value of TGF-β1 in HT-2 assay” value [7] of the same molecule?
Answer: The value was 0.04 to 0.2 ng/mL.

Question: Which “direct binding” value (TGF-β1 [2]) does the source give for relaxin here?
Answer: Its value is “do not directly bind TGF-β1 or its receptors”.

Question: And the “activity against TGF-β1, preclinical anti-fibrotic” value (TGF-β1 [3])?
Answer: Its value is “activity against TGF-β1”.

Question: For CPQLGKFGDVRF [RIIP-1], which “effect on HT-2 proliferation (fluorescence) vs own scrambled control” value ([5]; 10 μM soluble peptide, 0.1 ng/mL TGF-β1 (Fig. 2b)) is on record?
Answer: Its value is “not statistically different between RIIP-1 and its scrambled control”.
